Like-named read-outs stand apart in the source and are kept apart here.
Experiments:
Format in all cases: in vivo
[1] = test system: Passive Cutaneous Anaphylaxis; test: Passive Cutaneous Anaphylaxis (PCA test) in the Rat; settings: administered 5 minutes before the antigen
Procedure: The compounds of general formula (I) are all endowed with an extremely low toxicity (the DL50 per os in rats is higher than 1600 mg/kg for all the compounds) and they are rapidly absorbed through oral administration, so that the DE50 (the dosage capable of reducing the effects of the noxious stimulus by 50%) in the Passive Cutaneous Anaphylaxis Test in the rat is almost the same whether administered orally or intraperitoneally.
(a) Production of antiovalbumin reaginic serum. Male rats (COBS-CD) weighing 300 to 400 g, are immunized by intramuscular injection of 0.1 ml/kg of ovalbumin solution obtained by dissolving 20 mg of ovalbumin (Sigma) in 1 ml of saline and by intraperitoneal injection of 1 ml of pertussis vaccine (Abetin Sclavo). After eleven days the animals are killed, the blood collected and after one night at 4° C., centrifuged and sera stored at -20° C.
(b) PCA test--Male rats (COBS-CD) weighing 125 to 135 g were sensitized by two intradermal injections on the shaved back of 0.1 ml of anti-ovalbumin serum. After 24 hours, 25 mg/kg of ovalbumin and 25 mg/kg of Evans blue are injected intravenously and thirty minutes later the animals are killed, the skin of the back removed and the major and minor diameters of the two spots on the reflected skin are measured.

[2] = test system: gastric acid secretion; test: inhibition of gastric acid secretion in pylorus ligated rats (Shay rats); settings: Rattus norvegicus, po, os, 50% inhibition of gastric acid secretion, read-out: Antisecretory and antiulcer activity ED50 Shay
Source text: (§1) The pharmacological study of the antiulcer activity of the compounds, in accordance with the present invention, has been carried out determining the dose which inhibits the gastric acid secretion by 50% (ED50) in pylorus ligated rats (Shay rats) according to the method described by Shay et al., in Gastroenterology 26, 906, 1954, the dose which reduces by 50% (ED50) the indomethacin-induced ulcers according to the procedure described by Leet et al., in Arch. Int. Pharmacodyn. 191, 370, 1971 and the dose which reduces by 50% (ED50) the ulcers by cold and restraint according to the procedure described by Senay and Levine in Proc. Soc. Exp. Biol. Med. 124, 1221, 1967.

[3] = test system: indomethacin-induced ulcers; test: indomethacin-induced ulcers; settings: Rattus norvegicus, po; os, 50% reduction of indomethacin-induced ulcers; read-out: Antisecretory and antiulcer activity ED50 Indometacin
Source text: as §1

[4] = test system: ulcers by cold and restraint; test: ulcers by cold and restraint; settings: Rattus norvegicus, po; os, 50% reduction of ulcers by cold and restraint; read-out: Antisecretory and antiulcer activity ED50 Restraint
Source text: as §1

[5] = ip, intraperitoneal, read-out: PCA Test ED50 l.p.
[6] = po, os, read-out: PCA Test ED50 os

Structure (SMILES)	ED50 [1, 5]	ED50 [1, 6]	ED50 [2]	ED50 [3]	ED50 [4]
CCOC(=O)C(=O)Nc1ccncn1 [Symbol 933]	32 mg/kg	96 mg/kg	3.8 mg/kg	4.7 mg/kg	10 mg/kg
CCOC(=O)C(=O)Nc1cc(SCCOC)ncn1 [Symbol 957]	5.8 mg/kg	23 mg/kg	6.2 mg/kg	9.4 mg/kg	14 mg/kg
CCOC(=O)C(=O)Nc1cc(OCCOC)ncn1 [Symbol 932, 4-carbethoxycarbonilamino-6-(β-methoxyethoxy)-pyrimidine]	10 mg/kg	26 mg/kg	2.1 mg/kg	3.2 mg/kg	7 mg/kg
CCOC(=O)C(=O)Nc1cc(OC)nc(OC)n1 [Symbol 934]	25 mg/kg	> 100 mg/kg	4.1 mg/kg	5.6 mg/kg	11 mg/kg
CCOC(=O)C(=O)Nc1cc(SCCOC(=O)C(=O)OCC)nc(C)n1 [Symbol 929]	2.4 mg/kg	18 mg/kg	8.4 mg/kg	22.2 mg/kg	18 mg/kg
CCOC(=O)C(=O)Nc1cc(OCCOCc2ccccc2)nc(C)n1 [Symbol 927]	23 mg/kg	80 mg/kg	6.4 mg/kg	14.8 mg/kg	16 mg/kg
CCOC(=O)C(=O)Nc1cc(OC)nc(C)n1 [Symbol 913]	< 5 mg/kg	> 100 mg/kg	3.6 mg/kg	4.2 mg/kg	15 mg/kg
CCOC(=O)C(=O)Nc1cc(SCCOC)nc(C)n1 [Symbol 955]	6.9 mg/kg	25 mg/kg	2.3 mg/kg	2.8 mg/kg	7 mg/kg
CCOC(=O)C(=O)Nc1cc(OC)nc(-c2ccccc2)n1 [Symbol 921]	30 mg/kg	100 mg/kg	6.2 mg/kg	15 mg/kg	25 mg/kg
CCOC(=O)C(=O)Nc1cc(OCCOC)nc(C)n1 [Symbol 923]	25 mg/kg	70 mg/kg	4.1 mg/kg	3.2 mg/kg	9 mg/kg
CCOC(=O)C(=O)Nc1cc(OC)ncn1 [Symbol 907]	32 mg/kg	100 mg/kg	3.2 mg/kg	4.6 mg/kg	12 mg/kg
CCOC(=O)C(=O)Nc1cc(OCCOCCOC)ncn1 [Symbol 963]	6.2 mg/kg	24 mg/kg	6.1 mg/kg	7.3 mg/kg	16 mg/kg
CCOC(=O)C(=O)Nc1cc(SC)nc(C)n1 [Symbol 928]	30 mg/kg	> 100 mg/kg	7.2 mg/kg	2 mg/kg	14 mg/kg
CCOC(=O)C(=O)Nc1cc(Cl)ncn1 [Symbol 931]	24 mg/kg	> 100 mg/kg	6.3 mg/kg	7.2 mg/kg	22 mg/kg
CCOC(=O)CCCSc1cc(NC(=O)C(=O)OCC)ncn1 [Symbol 953]	3.2 mg/kg	26 mg/kg	7.2 mg/kg	8.8 mg/kg	12 mg/kg
CCOC(=O)C(=O)Nc1cc(SCCOC(=O)C(=O)OCC)ncn1 [Symbol 940]	12 mg/kg	43 mg/kg	5.2 mg/kg	3.6 mg/kg	8 mg/kg
CCOC(=O)C(=O)Nc1cc(SCCOCCOC)ncn1 [Symbol 965]	7.3 mg/kg	20 mg/kg	8.3 mg/kg	6.1 mg/kg	17 mg/kg
